Measurements from PMC11758220, “Identification of a Privileged Scaffold for Inhibition of Sterol Transport Proteins through the Synthesis and Ring Distortion of Diverse, Pseudo-Natural Products” (ACS Central Science, 2025).
pKd: −log10 of the molar value.

Assays:
[1] = Stability test of spirooxepinoindole in DMSO and FP assay buffer (LC-LRMS); assay type: physicochemical
Protocol: Stability test of spirooxepinoindole
The stability of the spirooxepinoindoles in dimethyl sulfoxide and in the assay buffer was tested to be […]
A sample in the FP assay buffer was prepared from the dimethyl sulfoxide stock solution of compound 15b. The dimethyl sulfoxide stock solution was prepared 2021.12.10, and the sample in the assay buffer was prepared 2022.09.28. The samples were monitored by LC-LRMS over time to look for degradation. Both acidic and basic LC-LRMS runs were used since acidic conditions could catalys e the re-condensation of potential hydrolysed spirooxepinoindoles.
Sample: Compound 15b in FP assay buffer: 20 mM HEPES, 300 mM NaCl, 0.01 %v/v Tween -20, 0.5 %v/v glycerol, 2 mM DTT. Concentration: 1.7 mM.
Figure S6: LC-LRMS trace of the stability test of spirooxepinoindole 15b in FP assay buffer measured using the acidic run. (a) UV chromatogram after zero hours, (b) UV chromatogram after four hours, (c) UV chromatogram after 20 hours, (d) MS spectrum.
LC-LRMS (ESI+) m/z: 332.0 found for [M+H]+ for 15b, 332.1 calcd. For C17H19BrNO+. […]
Figure S7: LC-LRMS trace of the stability test of spirooxepinoindole 15b in FP assay buffer measured using the basic run. (a) UV chromatogram after zero hours, (b) UV chromatogram after four hours, (c) UV chromatogram […]
for 20 hours showing no sign of degradation (Figure S6 and Figure S7). […]

Aster-A = target: T1, Aster-A (Homo sapiens, UniProt Q96CP6); assay: Microplate-based cholesterol transfer assay between liposomes (FRET); assay type: biochemical; settings: Aster-A 125 nM, compound 10 μM, FRET with Rh-DHPE
T1 construct: Aster-A(359-547); GST (PreScission-cleavable) (N, cleaved yes); made in house; host or cells: E. coli OverExpress C41
T1 sequence (Q96CP6 359-547): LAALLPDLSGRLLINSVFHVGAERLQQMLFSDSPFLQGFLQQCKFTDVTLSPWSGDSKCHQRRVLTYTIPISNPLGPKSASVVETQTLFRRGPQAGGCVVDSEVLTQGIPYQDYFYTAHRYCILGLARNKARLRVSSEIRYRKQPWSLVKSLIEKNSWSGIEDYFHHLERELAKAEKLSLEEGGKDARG

STARD5 = target: T2, STARD5 (Homo sapiens, UniProt Q9NSY2); design: method as in Depta et al.[43]; settings: data reproduced; ref Depta et al.[43]; read-out: STARD5 Kd,app (DSF); cited from earlier work
T2 construct: STARD5(6-213); host or cells: E. coli BL21(DE3)
T2 sequence (Q9NSY2 6-213): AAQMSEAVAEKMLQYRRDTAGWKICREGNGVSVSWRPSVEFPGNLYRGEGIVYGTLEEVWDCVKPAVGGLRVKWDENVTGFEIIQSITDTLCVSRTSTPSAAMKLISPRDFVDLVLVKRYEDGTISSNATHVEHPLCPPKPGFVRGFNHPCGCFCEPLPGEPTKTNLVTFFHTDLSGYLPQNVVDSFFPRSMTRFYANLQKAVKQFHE

C[C@]12CC[C@@H]3C[C@H]1CC[C@@]21C(=Nc2ccc(Br)cc21)O3 (racemic) [Compound 15b]
Stability in FP assay buffer (no sign of degradation) ([1]; 20 mM HEPES, 300 mM NaCl, 0.01 %v/v Tween-20, 0.5 %v/v glycerol, 2 mM DTT, 1.7 mM): 20 h | Stability in dimethyl sulfoxide (no sign of degradation) ([1]; DMSO stock solution): several months

CC12CCC3CC1CCC21C(=Nc2ccc(N4CCOCC4)cc21)O3 (single isomer, unassigned; (-)) [(−)-19a]
Inhibition of Aster-A mediated transport of 23-BODIPY-cholesterol between synthetic liposomes (Aster-A): inhibited

CCN(CC)CCO[C@H]1CC[C@@]2(C)C(=CC[C@@H]3[C@@H]2CC[C@]2(C)C(=O)CC[C@@H]32)C1 [Compound U18666A, reference compound]
pKd (STARD5): < 4.52
